Results on one compound are retold here after US20060183794A1, “Drug composition containing nf-kb inhibitor” (priority 2002, published 2006).

Type in all cases: cell-based
In test [1] the target is T1, NF-κB (Homo sapiens, UniProt P19838+Q04206). Kind of test: 6 kB-Luc reporter assay of NF-κB transcription in multiple myeloma cell lines. The arrangement: endogenous in cells; host or cells: MM cell lines KMM1, RPMI8226, U266. The note with it: 5 μg/ml, 12-hour treatment; compared with non-treated cells. How it is done: Next, the inhibitory effect on activation of NF-κB was investigated using the reporter assay. First, 6 kB-Luc plasmid was introduced by transfection into the MM cell lines, KMM1, RPMI8226, and U266 (transfected on a scale of a 2×10^5 cells/transfection using DMRIE-C (Invitrogen)) After 12 hours, 12-hour treatment of cells with 5 μg/ml DHM2EQ was started and the suppressive effect of DHMEQ on the transcription by NF-κB was examined. […] The suppressive effect of DHMEQ on transcription by NF-κB was therefore indicated.

The test system of test [2] is MM cell lines, KMM1, RPMI8226, and U266. Briefly: MTT assay, proliferation of multiple myeloma cell lines. On the procedure:
Cells from the ATL cell lines (MT-1 and TL-Om1) and a control cell line (K562) were plated in 96-well plates at 1×10^5 cells/well and DHM2EQ was added at the desired final concentrations (2, 5, and 10 μg/ml). Cells to which the solvent DMSO had been added in equal volume (0 μg/ml) were used as […] incubation for 72 hours, cell viability was judged by the MTT assay. Relative MTT values were obtained as the ratio of the MMT values of DHM2EQ-treated cells to those of DHM2EQ-untreated cells, i.e., (MTT values of DHM2EQ-treated cells/MTT values of DHM2EQ-untreated cells)×100(%).
DHM2EQ was added to the ATL cell lines (MT-1 and TL-Om1) and a control cell line (K562) at a final concentration of 10 μg/ml and the cells were incubated for 12, 24, 48, and 72 hours. The proliferation-inhibitory effect was examined by the MTT assay. Cells to which the solvent DMSO had been added in equal volume were used as controls. Relative MTT values were obtained in the same manner as the aforementioned (1).
To investigate the influence of the DHMEQ concentrations on inhibition of cell proliferation, the cell viability was judged by using the MM cell lines, KMM1, RPMI8226, and U266 in the same method as in Example 5-(1). […]

Test [3] addresses T1, NF-κB. Kind of test: Gel shift assay of NF-κB/DNA binding in TNF-α-treated MCF-7 cells. Further details: endogenous in cells; host or cells: MCF-7 cells treated with TNF-α. Particulars: 30 min. On the procedure:
MCF-7 cells (endowed by Professor Adrian L. Harriswere, Oxford University) were plated in portions of 4 ml at 1×10^5 cells/ml in […] (2 dishes per condition). On the next day, the culture medium in the 60 mm dishes was adjusted to 2 ml, treated with DHMEQ prepared at 1, 3, and 10 μg/ml for 2 hours, and subsequently, with TNF-α at 20 ng/ml. The culture medium in 60 mm dishes was extracted with a sucker 30 min after TNF-α treatment, cells were washed twice with PBS− for external application, 1 ml of cold PBS− was added, the cells were scraped with a rubber policeman (twice), and transferred to a 15 ml centrifuge tube. Cells were collected from two 60 mm dishes into a 15 ml centrifuge tube, centrifuged at 1,000 rpm for 5 min, and the supernatant was removed. To this, 700 μl of cold PBS− was added. […] The following operations were performed in ice. […] Next, collected nuclei were suspended in 40 μl buffer C (20 mM HEPES-KOH: pH7.9 […] 25% glycerol, 420 mM NaCl, 1.5 mM MgCl2, 0.2 mM EDTA, 0.5 mM DTT, 0.2 mM PMSF) and allowed to stand for 20 min. […]
Next, a Nick column was installed in the stand and a waste-liquid bottle was placed under the column. […] The column, fraction 1, and fraction 2 were measured individually with a Geiger counter and the readings confirmed fraction 2>the column>fraction 1. […]

The subject of test [4] is human breast cancer cell line MCF-7. Briefly: In vitro proliferation of MCF-7 (trypan blue cell count). How it is done: The human breast cancer cell line MCF-7 (NF-κB non-constitutively activated tumor) was incubated in 24, 48, and 72 hours in the presence of 10 and 50 μg/ml DHMEQ, and the proliferation-suppressive effect was examined.
MCF-7 was plated in 6 well plates at 1×10^5/well. The next day, the culture media were changed into those (5 ml) containing DHMEQ at 10 and 50 μg/ml and into the control medium (5 ml) containing only DMSO, which is used for dissolution of DHMEQ, in equal amount to those containing each concentration of DHMEQ. The assay was performed in three wells per each group. Immediately after the change, cells were incubated for 24, 48, and 72 hours. Subsequently, the cells were scraped with trypsin+EDTA. The number of cells was counted with trypan blue and averages as well as standard deviations were calculated. Data for each group were obtained and plotted in comparison with the control cells treated with DMSO only.

T1 sequence (Q04206 whole entry): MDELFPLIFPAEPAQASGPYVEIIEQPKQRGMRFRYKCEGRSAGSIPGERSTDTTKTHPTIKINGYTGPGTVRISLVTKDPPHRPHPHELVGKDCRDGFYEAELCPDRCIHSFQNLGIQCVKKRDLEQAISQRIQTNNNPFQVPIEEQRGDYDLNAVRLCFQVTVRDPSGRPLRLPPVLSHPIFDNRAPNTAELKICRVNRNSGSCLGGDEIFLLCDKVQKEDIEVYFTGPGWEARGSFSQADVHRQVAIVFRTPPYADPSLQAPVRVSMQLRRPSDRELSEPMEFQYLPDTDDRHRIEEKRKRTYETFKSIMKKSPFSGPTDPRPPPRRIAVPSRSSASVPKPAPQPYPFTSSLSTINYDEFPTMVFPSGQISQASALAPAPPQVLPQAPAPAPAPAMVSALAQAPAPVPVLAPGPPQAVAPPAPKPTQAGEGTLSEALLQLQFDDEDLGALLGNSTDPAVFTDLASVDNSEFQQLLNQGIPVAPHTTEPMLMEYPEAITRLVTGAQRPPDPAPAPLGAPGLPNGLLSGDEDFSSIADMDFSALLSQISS
T1 sequence (P19838 1-433 limits assumed): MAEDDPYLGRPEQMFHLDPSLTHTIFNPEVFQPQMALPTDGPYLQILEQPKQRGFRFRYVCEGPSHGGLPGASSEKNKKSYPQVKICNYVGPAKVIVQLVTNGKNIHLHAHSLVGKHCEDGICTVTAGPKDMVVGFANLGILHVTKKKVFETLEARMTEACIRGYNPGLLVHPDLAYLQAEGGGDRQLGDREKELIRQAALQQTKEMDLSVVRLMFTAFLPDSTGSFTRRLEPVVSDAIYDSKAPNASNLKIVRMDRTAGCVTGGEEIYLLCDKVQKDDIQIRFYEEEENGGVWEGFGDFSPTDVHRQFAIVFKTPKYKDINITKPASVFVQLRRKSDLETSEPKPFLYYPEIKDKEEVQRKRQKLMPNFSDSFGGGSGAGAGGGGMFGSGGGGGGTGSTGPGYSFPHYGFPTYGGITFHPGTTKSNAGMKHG

Turning to `O=C(NC1=CC(=O)C2OC2C1O)c1ccccc1O` (stereo not drawn) [DHMEQ, 5,6-epoxy-4-hydroxy-3-salicyloylamino-2-cyclohexenone], the “transcription by NF-κB suppressed by (reporter assay)” value in test [1] is on record as “about 50%”. The “cell proliferation, concentration dependence (MTT)” value in test [2] is on record as “suppressed in proportion to the DHMEQ concentrations”. For the same compound, the “cell proliferation, time course (MTT)” value in test [2] is “suppressed in proportion to the DHMEQ treatment time”. Besides, the “binding between NF-κB and DNA” value is “completely inhibited” in test [3] (DHMEQ 10 μg/ml, TNF-α 20 ng/ml) and “concentration-dependently inhibited” in test [3] (DHMEQ 1, 3, 10 μg/ml for 2 hours, then TNF-α 20 ng/ml). The “cells survived compared with the control” value in test [4] (10 μg/ml, 24 hours) is reported as 39%; in test [4] (10 μg/ml, 48 hours) it was 25%; in test [4] (10 μg/ml, 72 hours), 17%; in test [4] (50 μ/ml, in and after 24 hours) it was “no cells were observed to survive”.
